From patent US6750228B1, “Aromatic sulfone hydroxamic acid metalloprotease inhibitor” (priority 1997, dated 2004)
Read-outs that look alike come from different tables or passages of the source.

What was measured:
Assay in all cases: biochemical
[1] = biological target: T1, MMP-1 (Homo sapiens, UniProt P03956); conditions: read-out: MMP-1 IC50
T1 construct: made in house; host or cells: transfected HT-1080 cells (provided by Dr. Harold Welgus, Washington University)
T1 sequence (P03956 100-469): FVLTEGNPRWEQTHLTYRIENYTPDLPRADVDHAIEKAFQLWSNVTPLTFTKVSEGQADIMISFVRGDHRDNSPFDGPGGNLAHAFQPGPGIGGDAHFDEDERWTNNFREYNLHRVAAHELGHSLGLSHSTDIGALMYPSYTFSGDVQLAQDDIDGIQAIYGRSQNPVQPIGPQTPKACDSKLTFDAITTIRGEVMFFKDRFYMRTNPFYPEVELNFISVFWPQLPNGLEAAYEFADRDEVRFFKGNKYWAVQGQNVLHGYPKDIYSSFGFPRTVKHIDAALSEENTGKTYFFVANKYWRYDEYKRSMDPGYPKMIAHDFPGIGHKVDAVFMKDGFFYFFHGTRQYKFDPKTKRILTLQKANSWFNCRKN
Method in brief: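 Substrate MCA-PLGL-Dpa-AR-NH2 at 4 μM final; pH 7.5 Tris/NaCl/CaCl2 buffer with 0.05% polyethyleneglycol lauryl ether, 1% DMSO, room temperature. MMP-1 was expressed in transfected HT-1080 cells and APMA-activated.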

[2] = biological target: T2, MMP-13 (Homo sapiens, UniProt P45452)
T2 construct: made in house; host or cells: baculovirus / insect cells
Method in brief: (§1)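 APMA- or trypsin-activated enzymes were preincubated with inhibitor for 5 min at room temperature, then the fluorogenic substrate MCA-Pro-Leu-Gly-Leu-Dpa-Ala-Arg-NH2 was added to a final 4 μM.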

[3] = biological target: T3, MMP-2 (Homo sapiens, UniProt P08253); conditions: read-out: MMP-2 IC50
T3 construct: made in house; provided by Dr. Gregory Goldberg, Washington University
T3 sequence (P08253 110-660): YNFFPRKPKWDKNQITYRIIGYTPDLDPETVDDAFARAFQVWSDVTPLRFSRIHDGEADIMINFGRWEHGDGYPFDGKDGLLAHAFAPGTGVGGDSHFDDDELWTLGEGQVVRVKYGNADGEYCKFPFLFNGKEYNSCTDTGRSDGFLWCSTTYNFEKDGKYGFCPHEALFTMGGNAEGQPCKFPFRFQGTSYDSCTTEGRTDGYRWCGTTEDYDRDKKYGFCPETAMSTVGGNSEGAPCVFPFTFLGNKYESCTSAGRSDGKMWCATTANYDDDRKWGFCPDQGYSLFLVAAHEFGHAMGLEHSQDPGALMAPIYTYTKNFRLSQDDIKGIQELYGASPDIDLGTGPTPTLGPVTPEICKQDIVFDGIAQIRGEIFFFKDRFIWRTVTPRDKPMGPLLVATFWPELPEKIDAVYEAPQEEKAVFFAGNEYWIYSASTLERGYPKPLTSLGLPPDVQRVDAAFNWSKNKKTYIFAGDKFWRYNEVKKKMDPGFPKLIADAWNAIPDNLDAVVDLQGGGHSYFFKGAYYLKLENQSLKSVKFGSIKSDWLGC
Method in brief: as §1

[4] = recombinant human MMP-1, MCA peptide substrate 4 μM, pH 7.5, room temperature
[5] = recombinant human MMP-13, MCA peptide substrate 4 μM, pH 7.5, room temperature, read-out: MMP-13 IC50
[6] = recombinant human MMP-2, MCA peptide substrate 4 μM, pH 7.5, room temperature

Compound | IC50 [1, 4] | IC50 [2, 5] | IC50 [3, 6] | IC50 ([2]; MMP-13 IC50 (nM), recombinant human MMP-13, MCA peptide substrate 4 μM, pH 7.5, room temperature) | IC50 [1] | IC50 ([2]; read-out: MMP-13 IC50) | IC50 [3] | IC50 ([2]; MMP-13 IC50 (nM))
CC(C)COCc1ccc(COC2CCN(c3ccc(S(=O)(=O)C4(C(=O)NO)CCOCC4)cc3)CC2)cc1 [Example 555] | > 10 µM | 3.7 nM | 220 nM |  |  |  |  | 
O=C(NO)C1(S(=O)(=O)c2ccc(N3CCC(OCc4ccc(F)cc4C(F)(F)F)CC3)cc2)CCN(C2CC2)CC1 [Example 414] | > 10 µM | 50.5 nM | 1500 nM |  |  |  |  | 
N#Cc1ccc(OC2CCN(c3ccc(S(=O)(=O)C4(C(=O)NO)CCOCC4)cc3)CC2)cc1 [Example 469] | > 10 µM | 0.8 nM | 12 nM |  |  |  |  | 
Cc1ccccc1N1CC2CC1CN2c1ccc(S(=O)(=O)C2(C(=O)NO)CCOCC2)cc1 (stereo not drawn) [Example 494] | > 10 µM | 650 nM | 3300 nM |  |  |  |  | 
O=C(c1cccc(F)c1)C1CCN(c2ccc(S(=O)(=O)C3(C(=O)NO)CCOCC3)cc2)CC1 [Example 728] | > 10 µM | 9.4 nM | 106 nM |  |  |  |  | 
O=C(Nc1ccc(F)cc1)C1CCN(c2ccc(S(=O)(=O)C3(C(=O)NO)CCOCC3)cc2)CC1 [Example 75] | > 10 µM | 11.5 nM | 500 nM |  |  |  |  | 
N#Cc1ccc(COC2CCN(c3ccc(S(=O)(=O)C4(C(=O)NO)CCOCC4)cc3)CC2)cc1 [Example 180] | > 10 µM | 1.1 nM | 41.8 nM |  |  |  |  | 
O=C(NO)C1(S(=O)(=O)c2ccc(N3CCC(c4cccc5ccccc45)CC3)cc2)CCOCC1 [Example 540] | > 10 µM |  | 500 nM | 11.4 nM |  |  |  | 
CCCN(CC1CC1)C(=O)C1CCN(c2ccc(S(=O)(=O)C3(C(=O)NO)CCOCC3)cc2)CC1 [Example 35] | > 10 µM | 30 nM | 9000 nM |  |  |  |  | 
O=C(NO)C1(S(=O)(=O)c2ccc(N3CCC(CCOCc4cccc(C(F)(F)F)c4)CC3)cc2)CCOCC1 [Example 503] | > 10 µM | 10 nM | 50 nM |  |  |  |  | 
C[C@@H]1C[C@H](C)CN(C(=O)C2CCN(c3ccc(S(=O)(=O)C4(C(=O)NO)CCN(C(=O)OC(C)(C)C)CC4)cc3)CC2)C1 [Example 241, rel-1,1-Dimethylethyl 4-[[4-[4-[[(3R,5S)-3,5-Dimethyl-1-piperidinyl]carbonyl]-1-piperidinyl]-phenyl]sulfonyl]-4-[(hydroxyamino)carbonyl]-1-piperidinecarboxylate] | > 10 µM | 4.8 nM | > 10000 nM |  |  |  |  | 
CC1(C)CC2CC(C)(CN2c2ccc(S(=O)(=O)C3(C(=O)NO)CCOCC3)cc2)C1 (stereo not drawn) [Example 214] | > 10 µM | 4900 nM | 3500 nM |  |  |  |  | 
O=C(C1CCN(c2ccc(S(=O)(=O)C3(C(=O)NO)CCOCC3)cc2)CC1)N1CCN(c2ncc(C(F)(F)F)cc2Cl)CC1 [Example 41] |  |  |  |  | > 10 µM | 70 nM | 5400 nM | 
COCCN(CCOC)CC(=O)N1CCC(C(=O)NO)(S(=O)(=O)c2ccc(N3CCC(C(=O)N4CC(C)CC(C)C4)CC3)cc2)CC1 (stereo not drawn) [Example 303] | > 10 µM | 115 nM | > 10000 nM |  |  |  |  | 
O=C(NO)C1(S(=O)(=O)c2ccc(N3CCC(Oc4ccc(Cl)cc4)CC3)cc2)CCOCC1 [Example 615] | > 10 µM | 3.1 nM | 11 nM |  |  |  |  | 
CCN(Cc1ccncc1)C(=O)C1CCN(c2ccc(S(=O)(=O)C3(C(=O)NO)CCOCC3)cc2)CC1 [Example 52] | > 10 µM | 90 nM | 1900 nM |  |  |  |  | 

Compound | IC50 [1, 4] | IC50 [2, 5] | IC50 [3, 6] | IC50 ([2]; MMP-13 IC50 (nM), recombinant human MMP-13, MCA peptide substrate 4 μM, pH 7.5, room temperature) | IC50 [1] | IC50 ([2]; read-out: MMP-13 IC50) | IC50 [3] | IC50 ([2]; MMP-13 IC50 (nM))
Cc1cc(C)cc(C(=O)C2CCN(c3ccc(S(=O)(=O)C4(C(=O)NO)CCOCC4)cc3)CC2)c1 [Example 730] | > 10 µM | 37 nM | 3000 nM |  |  |  |  | 
O=C(c1cccc(OC(F)(F)F)c1)C1CCN(c2ccc(S(=O)(=O)C3(C(=O)NO)CCOCC3)cc2)CC1 [Example 725] | > 10 µM | 25.1 nM | 210 nM |  |  |  |  | 
O=C(CCCCN1CCNCC1)N1CCC(C(=O)NO)(S(=O)(=O)c2ccc(Oc3ccc(C(F)(F)F)cc3)cc2)CC1 [Example 343] | > 10 µM | 1.7 nM | 0.8 nM |  |  |  |  | 
C/C=C/CC(=O)C1CCN(c2ccc(S(=O)(=O)C3(C(=O)NO)CCOCC3)cc2)CC1 [Example 761] | > 10 µM | 5 nM | 41.8 nM |  |  |  |  | 
COc1ccc(S(=O)(=O)N2CCN(c3ccc(S(=O)(=O)C4(C(=O)NO)CCOCC4)cc3)CC2)cc1OC [Example 683] | > 10 µM | 11.3 nM | 290 nM |  |  |  |  | 
CC1CC(C)CN(C(=O)C2CCN(c3ccc(S(=O)(=O)C4(C(=O)NO)CCN(C(=O)OCC5c6ccccc6-c6ccccc65)CC4)cc3)CC2)C1 (stereo not drawn) [Example 274] |  |  |  |  | > 10 µM | 160 nM | > 10000 nM | 
Cc1ccc(N2CCN(c3ccc(S(=O)(=O)C4(C(=O)NO)CCOCC4)cc3)CC2)cc1 [Example 535] | > 10 µM |  | 35 nM |  |  |  |  | 1.9 nM
O=C(NO)C1(S(=O)(=O)c2ccc(OC3CN(S(=O)(=O)Cc4ccccc4)C3)cc2)CCOCC1 [Example 850] | > 10 µM | 4.5 nM | 150 nM |  |  |  |  | 
O=C(NO)C1(S(=O)(=O)c2ccc(N3CC4CC3CO4)cc2)CCOCC1 (stereo not drawn) [Example 492] | > 10 µM | 6100 nM | > 10000 nM |  |  |  |  | 
O=C(NCc1ccccc1)OC1CCN(c2ccc(S(=O)(=O)C3(C(=O)NO)CCOCC3)cc2)CC1 [Example 520] | > 10 µM | 22.5 nM | 250 nM |  |  |  |  | 
CCCC(=O)N1CCN(c2ccc(S(=O)(=O)C3(C(=O)NO)CCOCC3)cc2)CC1 [Example 590] | > 10 µM | 121 nM | 80 nM |  |  |  |  | 
N#Cc1cccc(COC2CCN(c3ccc(S(=O)(=O)C4(C(=O)NO)CCOCC4)cc3)CC2)c1 [Example 560] | > 10 µM | 4.5 nM | 306 nM |  |  |  |  | 
O=C(NO)C1(S(=O)(=O)c2ccc(N3CCC(Oc4ccc(C(F)(F)F)cc4)CC3)cc2)CCOCC1 [Example 567] | > 10 µM | 5 nM | 87.7 nM |  |  |  |  | 
O=C(NO)C1(S(=O)(=O)c2ccc(N3CCC(C(O)c4ccccc4)CC3)cc2)CCOCC1 (stereo not drawn) [Example 827] | > 10 µM | 10 nM | 540 nM |  |  |  |  | 
CS(=O)(=O)N1CCC(C2CCN(c3ccc(S(=O)(=O)C4(C(=O)NO)CCOCC4)cc3)CC2)CC1 [Example 793] | > 10 µM | 4 nM | 23.5 nM |  |  |  |  | 
CCOC1CCCN(c2ccc(S(=O)(=O)C3(C(=O)NO)CCOCC3)cc2)C1 (stereo not drawn) [Example 562] | > 10 µM | 1200 nM | 6300 nM |  |  |  |  | 
